Measurements reported in US9708628B2, “Cationic lipid having improved intracellular kinetics” (NOF CORPORATION, priority 2011, dated 2017).
“Also recorded” adds a separate entry of the source.

How the values were obtained:
[1] = Liposome destabilization test in reductive environment (DTT, TNS fluorescence); type: physicochemical; settings: 10 mM DTT, 37° C., 0-24 hr; TNS at pH 4.0
Procedure: DTT was added to various MEND solutions to a final concentration of 10 mM and the mixtures were stood at 37° C. The fluorescence intensity was measured using TNS (6-(p-Toludino)-2-Naphthalene Sulfonic acid) at the time points of 0, 1, 2, 4, 8, 24 hr later. The MEND solutions were diluted to 0.5 mM. The 0.5 mM MEND solution (12 μL), 20 mM citrate buffer (186 μL, containing 150 mM NaCl, acidic pH (pH 4.0)), and 0.6 mM TNS (2 μL) were added to a 96-well plate for fluorescence measurement (Nunc), and the fluorescence intensity was measured at excitation wavelength 321 nm, detection wavelength 447 nm, at 37° C. As a control, MEND solution added with the same amount of 10 mM HEPES buffer free of DTT at 0 hr and stood for each time at 37° C. was used, and the fluorescence intensity was measured using TNS by the same treatment. The fluorescence intensity under reductive environment was divided by the fluorescence intensity of the control and used as an index of the destabilization of lipid membrane.
As a result, attenuation of TNS fluorescence due to the DTT treatment was not observed in DODAP and B-2-1 not having a disulfide bond. […] TNS is adsorbed, under an acidic environment of pH 4.0, to a particle surface having a positive surface potential via electrostatically interactions, and emits fluorescence according to the liposoluble environment of the lipid structure part of a liposome.

HT1080 cells = experiment: Gene expression by MEND (luciferase assay, RLU/mg protein); type: cell-based; settings: for gene expression activity (luciferase activity per cell protein): cationic lipid:SOPE:Chol=3:4:3, PEG2000DSG, pDNA 0.4 μg/well, 24 hr; for gene expression activity: B-2-4:DOPE:Chol=3:3:4, B-2-5:POPE:Chol=3:3:4, B-2:SOPE:Chol=5:3:2, PEG2000-DMG
Procedure: Using B-2 (Example 1), B-2-1 (Comparative Example 1), and DODAP (Comparative Example 2) as cationic lipids, MENDs having a composition of cationic lipid:SOPE:Chol=3:4:3 were prepared by the method described in [Experimental Example 1] (2). For the preparation, PEG2000DSG was used as PEG lipid, and MEND solutions corresponding to 0.55 mM of the lipid concentration were prepared. For cationic MEND, lipids having a composition of DOTAP:DOPE:Chol:=3:4:3 were used, and the cationic MEND was prepared according to the method described in [Experimental Example 1] (3).
HT1080 cells were plated on a 24-well plate at 4×10^4 cells/500 μL/well 24 hr before, various MENDs were diluted with DMEM (FBS 10%+) to a pDNA amount of 0.4 μg/500 μL/well and transfected. 24 hr later, the cells were washed with PBS(−) (500 μL), 1× Lysis buffer was added to each well by 75 μL, and the mixture was stood at −80° C. for 30 min or longer. The frozen 24-well plate was thawed on ice, the cells were detached with a cell scraper, and the total amount thereof was transferred into an Eppendorf tube and centrifuged under the conditions of 15000 rpm, 4° C., 5 min. The supernatant (50 μL) was recovered in a different Eppendorf tube, and used for luciferase assay and BCA assay.
20 μL thereof was mixed with a Luciferase assay substrate (50 μL), and the luciferase activity in a given time was measured by a luminometer. The obtained lysate was diluted 5-fold with DDW to achieve 25 μL total volume. Thereto was added BCA Protein Assay Reagent (200 μL), and the mixture was stood at 37° C. for 30 min. Thereafter, the absorbance at 562 nm was measured, and the protein amount of the sample was calculated from the absorbance of a BSA solution having a known concentration. The luciferase activity (RLU) was adjusted by dividing with protein amount (mg), and the luciferase activity per cell protein amount (RLU/mg protein) was calculated.
Using B-2 (Example 1), B-2-2 (Example 2), and B-2-3 (Example 3) as cationic lipids, MENDs having a composition of cationic lipid:SOPE:Chol=3:4:3 were prepared by the method described in [Experimental Example 1] (2). For the preparation, PEG2000DSG was used as PEG lipid, and MEND solutions corresponding to 0.55 mM of the lipid concentration were prepared. The gene expression was evaluated by the method described in [Example 4] (2).
Using compositions of B-2-4 (Example 4):DOPE:Chol=3:3:4, B-2-5 (Example 5):POPE:Chol=3:3:4, B-2 (Example 1):SOPE:Chol=5:3:2 as lipids, MENDs were prepared according to [Experimental Example 1](1) and (2). For the preparation, PEG2000-DMG was used as PEG lipid, and MEND solutions corresponding to 0.55 mM of the lipid concentration were prepared.
The gene expression activity was evaluated by the method described in [Experimental Example 4] (2).

[2] = Particle size and surface potential of siRNA-encapsulated MEND (ethanol dilution method); type: physicochemical; settings: siRNA/protamine MEND, PEG2000-DMG 3 mol %
Procedure: A siRNA solution and protamine (CALBIOCHEM) solution were diluted with 10 mM HEPES buffer (pH 5.3) to 0.3 mg/mL and 0.2 mg/mL, respectively. While stirring 0.3 mg/mL siRNA solution (250 μL), 0.2 mg/mL protamine solution (250 μL) was added dropwise in small portions to prepared an electrostatic complex of siRNA and protamine (N/P ratio=1.0) as a core of the vector.
A lipid solution in ethanol was mixed at a ratio of B-2:SOPE:Chol=5:3:2 for B-2 MEND (Example 1), at a ratio of B-2-4:DOPE:Chol=3:3:4 for B-2-4 MEND (Example 4), and at a ratio of B-2-5:POPE:Chol=3:4:3 for B-2-5 MEND (Example 5), to a total lipid of 660 nmol in a 5 mL tube. Further, PEG2000-DMG was added as PEG lipid in an amount equivalent to 3 mol % of the total lipid, and ethanol was added to a total volume of 400 μL each. While stirring the lipid solution by a vortex mixer, a solution (400 μL) of a nucleic acid electrostatic complex composed of siRNA/protamine prepared in [Experimental Example 27] was mixed, then 10 mM HEPES buffer (pH 5.3, 2.4 mL) was quickly added, and the mixture was vigorously stirred. The mixture was subjected to centrifugal ultrafiltration using Amicon Ultra-15 100K device (Millipore) at 1000 g, 10 min, 30° C. The mixture was sufficiently diluted with 10 mM HEPES buffer (pH 7.4), and again subjected to centrifugal ultrafiltration. This solution was adjusted to an object lipid concentration with 10 mM HEPES buffer (pH 7.4).
The particle size and surface potential were measured using the dynamic light scattering method (Zetasizer Nano; Malvern). The particle size and surface potential of various MENDs prepared by the preparation method of [Experimental Example 28] are shown in Table 5.

| SMILES | attenuation of TNS fluorescence due to DTT treatment (destabilization of lipid membrane) [1] | gene expression activity (luciferase activity per cell protein) (HT1080 cells) | gene expression activity (HT1080 cells) | PDI [2] | size (nm) [2] [nm] | zeta (mV) [2] [mV] | gene transfer activity divided by the intracellular uptake amount (HT1080 cells; FIG. 4) |
| --- | --- | --- | --- | --- | --- | --- | --- |
| CCCCCCCC/C=C\CCCCCCCC(=O)OCC(CN(C)C)OC(=O)CCCCCCC/C=C\CCCCCCCC (centres unmarked) [DODAP, reference compound] | not observed | – | – | – | – | – | – |
| CCCCCCCCCCCCCC(=O)OCCCN(C)CCCCCCN(C)CCCOC(=O)CCCCCCCCCCCCC [Example B-2-1, reference compound] | not observed | exceeded that of a conventionally-known cationic lipid, DODAP | – | – | – | – | – |
| CC1=C(/C=C/C(C)=C/C=C/C(C)=C/C(=O)OCCCN(C)CCSSCCN(C)CCCOC(=O)/C=C(C)/C=C/C=C(C)/C=C/C2=C(C)CCCC2(C)C)C(C)(C)CCC1 [Example B-2-4] | – | – | significantly higher than the activity of B-2 and B-2-5 | 0.11 | 186 | −5.1 | – |
| Cc1c(C)c2c(c(C)c1OC(=O)CCC(=O)OCCCN(C)CCSSCCN(C)CCCOC(=O)CCC(=O)Oc1c(C)c(C)c3c(c1C)CCC(C)(CCCC(C)CCCC(C)CCCC(C)C)O3)CCC(C)(CCCC(C)CCCC(C)CCCC(C)C)O2 (centres unmarked) [Example B-2-5] | – | – | equivalent to the activity of B-2 | 0.13 | 218 | −9.1 | – |
| CCCCCCCCCCCCCC(=O)OCCCN(C)CCSSCCN(C)CCCOC(=O)CCCCCCCCCCCCC [Example B-2] | disappearance of TNS fluorescence in a time-dependent manner | exceeded that of a conventionally-known cationic lipid, DODAP; also recorded: significantly higher than that of MEND prepared from B-2-1; also recorded: equivalent to that of DOTAP | – | 0.07 | 186 | −1.7 | high as compared to conventional DOTAP, DODAP and B-2-1 |
